Measurements reported in patent publication US6589966B1, “Cytotoxic metal chelators and methods for making and using same” (Wake Forest University Health Sciences, priority 1998, dated 2003).
Where two headings read alike, the source gives them in different places. One block for each compound: values may come before it.

How the values were obtained:
[1] = tested on: mouse (MBT2) bladder cancer cells; experiment: MTT dye reduction cell viability assay on MBT2 cells; type: cell-based
Procedure: (§1) The cytotoxic effects of tachpyr on mouse (MBT2) and human (T24) bladder cancer cells were evaluated in vitro, and compared to normal human fibroblasts (MRC-5). MBT2 cells were provided by Dr. L. Lattime (Thomas Jefferson University, Philadelphia, Pa.), while MRC-5 cells were a gift of H. Blau (Standford University, Standford, Calif.). T24 cells were obtained from ATTC (Rockville, Md.). Cells were grown in RPMI (MBT2) or DME medium (T24 and MRC-5) containing 10% fetal bovine serum in a humidified chamber containing 5% CO2. 5×10^3 cells were plated into 96-well tissue culture dishes, and permitted to attach overnight. Test compounds were then added, with six replicate cultures used for each point.
After 72 hours, cell viability was assessed using an MTT dye reduction assay [Mosmann, T., J. Immunol. Meth. 65:55 (1983)]. The MTT assay is widely used to measure drug effects on cell viability. [see Richardson, D., Blood 86:4295 (1995); Brüggerman, S., Cancer Res. 57:2676 (1997); and Silber, R., Blood 84:3440 (1994)]. Specifically, (3-(4,5-dimethylthiazol-2-yl)-2,5-diphenyl tetraxolium bromide was added to the medium, and the formation of a reduced product was assayed by measuring the optical density at 560/650 nm after 3 hours. Color formation was considered proportional to viable cell numbers. IC50 was defined as the concentration required to inhibit viability by 50%, and was calculated using the Multiple Drug-effect Analysis Program (Biosoft).
MBT2 cells were then incubated with 150 μM (dfo) or 25 μM tachpyr for various lengths of time, and survival was then measured using the MTT assay described above. Viability at time 0 was defined as 100%. […] Rather, cytotoxicity was delayed by approximately 24 hours, paralleling the cytotoxic time course of desferioxamine.
The metal complexes of tachpyr were prepared as disclosed in Example 3, and their effects on MBT2 cells were compared to those of tachpyr after 72 hours using the MTT assay referenced in Example 8.

tumor cells [2] = tested on: tumor cells
cell culture = experiment: Preliminary cell culture experiments comparing toxicity of tachpyr with tachpn; type: cell-based
Excerpt: In order to further explore the hypothesis that oxidative dehydrogenation is involved in chelator toxicity, the tach-based chelator with three N-propyleneamino arms (termed tachpn, Scheme 4 as shown in FIG. 3) has been studied. Tachpn is distinguished from tachpyr in having the —C(H)(CH3)(NH2) fragment in place of the pyridine ring. The α-hydrogens of tachpn are sterically hindered, relative to tachpyr, by the methyl group in the β position, so that tachpn may have a lower propensity toward α-hydrogen abstraction. Further, the pseudo-benzylic H^a of tachpyr would also have a potentially greater tendency to be abstracted, as compared to tachpn, on electronic grounds [see March, J., Advanced Organic Chemistry. McGraw-Hill, pp 914 ff) The considerations would imply that tachpn is less able than tachpyr to undergo oxidative dehydrogenation and to reduce Fe(III). Preliminary cell culture experiments were conducted to compare the toxicity of tachpyr with tachpn (FIG. 3).

tumor cells [3] = conditions: background statement; cited from earlier work
[4] = Richardson, D., Blood 86:4295 (1995); cited from earlier work
[5] = tested on: human (T24) bladder cancer cells; experiment: MTT dye reduction cell viability assay on T24 cells; type: cell-based; conditions: cell type T24, 72 hours, read-out: IC50(μM) of Tachpyr
Procedure: as §1
(§2) After 72 hours, cell viability was assessed using an MTT dye reduction assay [Mosmann, T., J. Immunol. Meth. 65:55 (1983)]. The MTT assay is widely used to measure drug effects on cell viability. [see Richardson, D., Blood 86:4295 (1995); Brüggerman, S., Cancer Res. 57:2676 (1997); and Silber, R., Blood 84:3440 (1994)]. […]

[6] = tested on: normal human fibroblasts (MRC-5); experiment: MTT dye reduction cell viability assay on MRC-5 cells; type: cell-based; conditions: cell type MRC-5, 72 hours, read-out: IC50(μM) of Tachpyr
Procedure: as §1, §2

[7] = tested on: MBT2 or T24 cultured bladder cancer cells; experiment: Cytotoxicity toward cultured bladder tumor cells; type: cell-based; conditions: cultured human and mouse bladder tumor cells
Procedure: as §1, §2

breast cancer cell lines = experiment: Cytotoxicity to breast cancer cell lines; type: cell-based
MBT2 cells = experiment: Clonogenic assay; type: cell-based, mouse; conditions: 72 hours with tachpyr, colonies grown seven days
Procedure: Cell viability was also-assessed using a clonogenic assay, which measures the ability of cells to divide and form visible colonies of about 50 or more cells. Replicate plates were exposed to various concentrations of tachpyr added to the growth medium. Control cells received no tachpyr. At the end of the incubation period, the surviving cells were trypsinized, diluted, and re-plated in growth medium without tachpyr. Colonies were permitted to grow for seven days. The growth medium was then removed, and plates were fixed with 0.5% gluteraldehyde, stained with 1% crystal violet, and then counted.

ferritin synthesis = experiment: Ferritin synthesis (35S labeling, immunoprecipitation, SDS PAGE); type: cell-based; conditions: 20 μM tachpyr, 16 hours
Procedure: Ferritin is a major iron storage protein whose synthesis is dependent upon intracellular concentrations of iron. To examine the role of tachpyr in the chelation of intracellular iron, the influence of tachpyr on ferritin synthesis was examined. Cells were exposed for either 7 or 16 hours to media containing either no additions, 20 μM tachpyr, 150 μM desferioxamine or 200 μM ferric nitrolotriacetate. During the last two hours of incubation, cells were metabolically labeled with S-translabel (ICN) and ferritin visualized by immunoprecipitation and SDS PAGE [Torti, S. et al.,J. Biol. Chem. 263:12638 (1988).]

RAW 264.7 cells = experiment: Apoptosis: DNA fragmentation by agarose gel electrophoresis; type: cell-based; conditions: 25 μM, 0, 6, 12 and 20 hours
Excerpt: Apoptosis, or “programmed cell death,” is a process initiated by many anti-cancer agents. Pathways of apoptosis involve complex intracellular changes, including the action of intracellular proteases (caspases), release of cytochrome C, mitochondrial changes, nuclear condensation and fragmentation, and ultimately cell death. A hallmark of apoptotic cell death is the appearance of “DNA ladders”: DNA cleaved at […] regions to generate a series of DNA fragments that can be visualized using agarose gel electrophoresis. In order to determine whether tachpyr triggers apoptotic pathways, DNA was isolated from RAW 264.7 cells that had been treated with 25 μM tachpyr for 0, 6, 12 and 20 hours. DNA was also isolated from cells treated for 7 hours with 50 μM cisplatin or 500 μM etoposide (VP16). Cisplatin and etoposide are DNA damaging agents that are currently used in cancer therapy and are known to induce apoptosis. They served as positive controls. We compared the effects of tachpyr, VP16 and cisplatin on DNA fragmentation using agarose gel electrophoresis. […] Thus, cytotoxic pathways elicited by tachpyr are similar to those evoked by classic anti-cancer agents, and are consistent with its contemplated use as a chemotherapeutic agent.

Compound: [Mn+2].[O-][Cl+3]([O-])([O-])[O-].[O-][Cl+3]([O-])([O-])[O-].c1ccc(CNC2CC(NCc3ccccn3)CC(NCc3ccccn3)C2)nc1 (centres unmarked) [MN(II) complex of tachpyr]
cytotoxicity (in words) ([1]; MBT2 cells, 72 hours, MTT): toxic

Compound: C(=NC1CC(N=Cc2ccccn2)CC(N=Cc2ccccn2)C1)c1ccccn1 (stereo not drawn) [tachpyr-3H2, cis,cis-1,3,5-tris(pyridine-2-carboxaldimino)cyclohexane]
cytotoxicity (in words) (tumor cells [2]): no cytotoxicity

Compound: CC(N)CNC1CC(NCC(C)N)CC(NCC(C)N)C1 (centres unmarked) [tachpn]
IC50 (cell culture; preliminary cell culture experiments, cell line not stated): ~80 µM
decrease in toxicity relative to tachpyr (cell culture; ratio of IC50 values): 17 fold

Compound: c1ccc(-c2ccccn2)nc1 [bipy]
cytotoxic effects on tumor cells (in words) (tumor cells [3]): only weak cytotoxic effects

Compound: [O-][Cl+3]([O-])([O-])[O-].[O-][Cl+3]([O-])([O-])[O-].[Zn+2].c1ccc(CNC2CC(NCc3ccccn3)CC(NCc3ccccn3)C2)nc1 (centres unmarked) [Zn(II) complex of tachpyr]
cytotoxicity (in words) ([1]; MBT2 cells, 72 hours, MTT): not toxic

IC50 ([1]; Mus musculus, MBT2 cells, 72 hours, MTT, single experiment of FIG. 8, read-out: calculated IC50 from FIG. 8 data): 70 µM
IC50 ([1]; Mus musculus, MBT2 cells, 72 hours, MTT, tachpyr: average of four independent experiments ± standard error, read-out: IC50): 70 µM
Compound: CC(=O)N(O)CCCCCNC(=O)CCC(=O)N(O)CCCCCNC(=O)CCC(=O)N(O)CCCCCN [desferrioxamine, reference compound]
cytotoxicity (in words) ([1]; MBT2 cells, 72 hours, MTT): cytotoxic
IC50 [4]: 70 µM

Compound: [Ca+2].[Cl-].[Cl-].c1ccc(CNC2CC(NCc3ccccn3)CC(NCc3ccccn3)C2)nc1 (centres unmarked) [Ca(II) complex of tachpyr]
cytotoxicity (in words) ([1]; MBT2 cells, 72 hours, MTT): toxic

Compound: [Fe(tachpyr)]Cl2 [FE(II) complex of tachpyr]
cytotoxicity (in words) ([1]; MBT2 cells, 72 hours, MTT): not toxic

Compound: [Cl-].[Cl-].[Cu+2].c1ccc(CNC2CC(NCc3ccccn3)CC(NCc3ccccn3)C2)nc1 (centres unmarked) [CU(II) complex of tachpyr]
cytotoxicity (in words) ([1]; MBT2 cells, 72 hours, MTT): not toxic

IC50 ([1]; MBT2 cells, 72 hours, MTT, single experiment of FIG. 8, read-out: calculated IC50 from FIG. 8 data): 3.6 µM
IC50 ([1]; MBT2 cells, 72 hours, MTT, tachpyr: average of four independent experiments ± standard error, read-out: IC50): 4.6 ± 2 µM
IC50 ([1]; Table I, cell type MBT2, read-out: IC50(μM) of Tachpyr): 2.2 µM
IC50 [5]: 4.3 µM
Compound: c1ccc(CNC2CC(NCc3ccccn3)CC(NCc3ccccn3)C2)nc1 (centres unmarked) [tachpyr]
delay of cytotoxicity ([1]; MBT2 cells, 25 μM tachpyr, time course, MTT): approximately 24 hours
cytotoxicity (in words) ([1]; MBT2 cells, 72 hours, MTT): cytotoxic
IC50 [6]: 30.5 µM
toxicity (in words) [7]: extremely toxic
cytotoxicity (in words) (breast cancer cell lines): cytotoxic
colony formation (MBT2 cells): inhibited colony formation
ferritin synthesis (ferritin synthesis): repressed
DNA fragmentation (DNA ladders) (RAW 264.7 cells): clearly induced DNA fragmentation

Compound: [Cl-].[Cl-].[Mg+2].c1ccc(CNC2CC(NCc3ccccn3)CC(NCc3ccccn3)C2)nc1 (centres unmarked) [MG(II) complex of tachpyr]
cytotoxicity (in words) ([1]; MBT2 cells, 72 hours, MTT): toxic
